Results as given in patent publication US8906925B2, “Pyrido[4,3-B]indoles containing rigid moieties” (Medivation Technologies, Inc., priority 2008, dated 2014).

Assays:
[1] = target: T1, human recombinant serotonin (5-Hydroxytryptamine) 5-HT2C receptor (Homo sapiens, UniProt P28335); experiment: Serotonin 5-HT2C radioligand binding ([3H]Mesulergine); details: compound at 0.1 μM; for inhibition at 0.1 µM: read-out: Inhibition of ligand binding, Serotonin 5-HT2C (percent inhibition of specific binding)
T1 construct: expressed in transfected cells; host or cells: Chinese hamster ovary (CHO-K1) cells
T1 sequence (P28335 33-458): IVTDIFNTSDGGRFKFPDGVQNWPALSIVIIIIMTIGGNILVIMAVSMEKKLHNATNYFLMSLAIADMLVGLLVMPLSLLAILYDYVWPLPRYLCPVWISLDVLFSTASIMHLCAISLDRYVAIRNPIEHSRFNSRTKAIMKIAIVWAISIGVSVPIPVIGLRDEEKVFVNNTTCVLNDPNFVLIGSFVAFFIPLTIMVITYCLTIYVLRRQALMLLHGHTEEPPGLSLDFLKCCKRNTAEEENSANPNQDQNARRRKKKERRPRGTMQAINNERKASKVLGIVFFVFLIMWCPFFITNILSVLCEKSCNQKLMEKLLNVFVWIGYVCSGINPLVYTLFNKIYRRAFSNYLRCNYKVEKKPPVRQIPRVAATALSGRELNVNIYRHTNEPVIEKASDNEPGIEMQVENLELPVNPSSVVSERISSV
Experimental: Compounds of the invention were incubated with 1 nM [^3H]Mesulergine for 60 min. at 25° C. Non-specific binding was estimated in the presence of 1 μM Mianserin. Receptor proteins were filtered and washed, the filters were then counted to determine [^3H]Mesulergine specifically bound. Compounds were screened at 1 μM or lower, using 1% DMSO as vehicle. Biochemical assay results are presented as the percent inhibition of specific binding in Table 10.

[2] = target: human recombinant serotonin (5-Hydroxytryptamine) 5-HT7 receptor (Homo sapiens, UniProt P34969); experiment: Serotonin 5-HT7 radioligand binding ([3H]LSD); details: compound at 0.1 μM; for inhibition at 0.1 µM: read-out: Inhibition of ligand binding, Serotonin 5-HT7 (percent inhibition of specific binding)
Chain of human recombinant serotonin (5-Hydroxytryptamine) 5-HT7 receptor (P34969 whole entry): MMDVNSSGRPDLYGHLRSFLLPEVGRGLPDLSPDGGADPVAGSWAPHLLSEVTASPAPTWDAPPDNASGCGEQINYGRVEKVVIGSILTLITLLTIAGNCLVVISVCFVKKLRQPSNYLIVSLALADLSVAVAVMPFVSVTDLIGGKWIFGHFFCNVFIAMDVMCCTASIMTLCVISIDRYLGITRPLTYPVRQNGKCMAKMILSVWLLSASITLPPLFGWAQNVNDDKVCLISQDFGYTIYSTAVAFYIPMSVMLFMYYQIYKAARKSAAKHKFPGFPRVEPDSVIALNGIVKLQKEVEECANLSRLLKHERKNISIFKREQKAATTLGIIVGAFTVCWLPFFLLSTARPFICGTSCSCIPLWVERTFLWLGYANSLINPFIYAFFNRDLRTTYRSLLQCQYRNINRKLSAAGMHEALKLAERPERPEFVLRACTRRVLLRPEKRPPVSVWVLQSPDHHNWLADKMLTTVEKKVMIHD
Description: Receptor proteins were filtered and washed, the filters were then counted to determine [^3H]LSD specifically bound.

[3] = target: human dopamine D2L receptor (Homo sapiens, UniProt P14416); experiment: Dopamine D2L radioligand binding ([3H]Spiperone); details: percent inhibition of specific binding, compound at 1 μM; for inhibition at 1 µM: read-out: Inhibition of ligand binding, Dopamine D2L
Chain of human dopamine D2L receptor (P14416 whole entry): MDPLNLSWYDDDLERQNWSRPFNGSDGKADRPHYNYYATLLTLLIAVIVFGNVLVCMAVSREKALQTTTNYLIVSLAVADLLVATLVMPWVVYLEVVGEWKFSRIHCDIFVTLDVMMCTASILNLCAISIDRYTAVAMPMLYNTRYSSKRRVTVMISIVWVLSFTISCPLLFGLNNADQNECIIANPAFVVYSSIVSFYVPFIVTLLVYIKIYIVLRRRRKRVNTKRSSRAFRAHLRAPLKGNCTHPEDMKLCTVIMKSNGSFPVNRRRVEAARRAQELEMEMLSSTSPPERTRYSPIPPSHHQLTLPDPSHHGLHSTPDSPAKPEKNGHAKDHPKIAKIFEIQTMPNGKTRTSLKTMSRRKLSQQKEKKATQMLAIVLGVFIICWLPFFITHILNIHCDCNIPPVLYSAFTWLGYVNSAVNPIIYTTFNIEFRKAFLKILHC
Description: Non-specific binding was estimated in the presence of […] Haloperidol. Receptor proteins were filtered and washed, the filters were then counted to determine [^3H]Spiperone specifically bound. […] Biochemical assay results are presented as the percent inhibition of specific binding in Table 9.

[4] = target: histamine receptor H1 (Homo sapiens, UniProt P35367); experiment: Histamine H1 radioligand binding ([3H]Pyrilamine); details: read-out: Histamine Binding (1 μM) H1, percent inhibition of specific binding, 1 μM
Chain of histamine receptor H1 (P35367 whole entry): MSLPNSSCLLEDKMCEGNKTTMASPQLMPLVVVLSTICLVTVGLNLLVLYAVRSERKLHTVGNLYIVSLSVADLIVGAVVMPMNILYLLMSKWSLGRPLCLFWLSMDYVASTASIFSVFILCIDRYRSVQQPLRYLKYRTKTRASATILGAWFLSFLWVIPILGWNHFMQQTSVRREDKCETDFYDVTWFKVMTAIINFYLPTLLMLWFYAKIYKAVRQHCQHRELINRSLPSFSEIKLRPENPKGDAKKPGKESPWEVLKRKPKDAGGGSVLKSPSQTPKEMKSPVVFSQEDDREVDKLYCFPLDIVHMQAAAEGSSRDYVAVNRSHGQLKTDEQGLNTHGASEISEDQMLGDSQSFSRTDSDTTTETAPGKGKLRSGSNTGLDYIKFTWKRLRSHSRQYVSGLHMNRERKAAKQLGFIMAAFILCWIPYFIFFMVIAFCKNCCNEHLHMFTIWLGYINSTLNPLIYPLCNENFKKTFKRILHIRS
How it was run: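 Values are percent inhibition of specific [3H]pyrilamine (1.2 nM) binding with compounds at ≤1 μM (1% DMSO vehicle); 180 min incubation at 25 °C, pH 7.4 Tris buffer, on CHO-expressed human H1 receptor; 1 μM pyrilamine defined nonspecific binding, bound ligand counted after filtration.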

[5] = target: T2, human recombinant serotonin (5-Hydroxytryptamine) 5-HT6 receptor (Homo sapiens, UniProt P50406); experiment: Serotonin 5-HT6 radioligand binding ([3H]LSD); details: compound at 0.1 μM; for inhibition at 0.1 µM: read-out: Inhibition of ligand binding, Serotonin 5-HT6 (percent inhibition of specific binding)
T2 construct: expressed in transfected cells; host or cells: human HeLa cells
T2 sequence (P50406 whole entry): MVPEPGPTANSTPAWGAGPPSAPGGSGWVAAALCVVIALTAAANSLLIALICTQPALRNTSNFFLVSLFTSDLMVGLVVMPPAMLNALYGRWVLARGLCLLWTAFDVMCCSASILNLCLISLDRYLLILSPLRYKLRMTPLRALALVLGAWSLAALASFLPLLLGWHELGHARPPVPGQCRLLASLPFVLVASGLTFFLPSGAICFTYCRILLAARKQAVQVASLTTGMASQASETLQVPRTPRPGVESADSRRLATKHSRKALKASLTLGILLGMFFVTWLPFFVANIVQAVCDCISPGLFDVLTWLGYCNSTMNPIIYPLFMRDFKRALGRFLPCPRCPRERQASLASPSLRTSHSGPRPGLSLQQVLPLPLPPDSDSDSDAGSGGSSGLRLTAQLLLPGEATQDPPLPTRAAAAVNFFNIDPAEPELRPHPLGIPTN
Experimental: Compounds of the invention were incubated with 1.5 nM [3H]Lysergic acid diethylamide (LSD) for 120 min. at 37° C. […] Receptor proteins were filtered and washed, the filters were then counted to determine [3H]LSD specifically bound. Compounds were screened at 1 μM or lower, using 1% DMSO as vehicle. Biochemical assay results are presented as the percent inhibition of specific binding in Table 10.

[6] = target: T3, human recombinant serotonin (5-Hydroxytryptamine) 5-HT2A receptor (Homo sapiens, UniProt P28223); experiment: Serotonin 5-HT2A radioligand binding ([3H]Ketanserin); details: for inhibition at 0.1 µM: read-out: Inhibition of ligand binding, Serotonin 5-HT2A (percent inhibition of specific binding), compound at 0.1 μM
T3 construct: expressed in transfected cells; host or cells: Chinese hamster ovary (CHO-K1) cells
T3 sequence (P28223 whole entry): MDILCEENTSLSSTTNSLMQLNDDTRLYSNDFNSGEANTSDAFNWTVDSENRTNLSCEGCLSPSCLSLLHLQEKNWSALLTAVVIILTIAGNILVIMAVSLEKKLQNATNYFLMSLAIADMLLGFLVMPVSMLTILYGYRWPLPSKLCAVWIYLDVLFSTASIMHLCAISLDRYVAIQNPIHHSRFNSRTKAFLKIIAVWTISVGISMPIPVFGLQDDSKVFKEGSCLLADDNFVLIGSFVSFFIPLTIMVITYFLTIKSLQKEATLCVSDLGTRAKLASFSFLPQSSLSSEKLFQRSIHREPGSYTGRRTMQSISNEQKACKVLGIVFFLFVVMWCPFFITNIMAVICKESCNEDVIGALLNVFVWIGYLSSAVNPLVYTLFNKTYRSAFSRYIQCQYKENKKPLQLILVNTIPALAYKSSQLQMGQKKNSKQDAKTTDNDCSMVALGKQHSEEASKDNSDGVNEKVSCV
Experimental: Compounds of the invention were incubated with 0.5 nM [^3H]Ketanserin for 60 min. at 25° C. Non-specific binding was estimated in the presence of 1 μM Mianserin. Receptor proteins were filtered and washed, the filters were then counted to determine [^3H]Ketanserin specifically bound.

| Compound | inhibition at 0.1 µM [1] [%] | inhibition at 0.1 µM [2] [%] | inhibition at 1 µM [3] [%] | inhibition at 1 µM [4] [%] | inhibition at 0.1 µM [5] [%] | inhibition at 0.1 µM [6] [%] | Inhibition of ligand binding, Serotonin 5-HT2C (percent inhibition of specific binding) ([1]; 0.1 µM) [%] | Inhibition of ligand binding, Serotonin 5-HT7 (percent inhibition of specific binding) ([2]; 0.1 µM) [%] | Inhibition of ligand binding, Dopamine D2L ([3]; 1 µM) [%] | Inhibition of ligand binding, Serotonin 5-HT6 (percent inhibition of specific binding) ([5]; 0.1 µM) [%] | Inhibition of ligand binding, Serotonin 5-HT2A (percent inhibition of specific binding) ([6]; compound at 0.1 μM, 0.1 µM) [%] |
| --- | --- | --- | --- | --- | --- | --- | --- | --- | --- | --- | --- |
| C/C(=C\n1c2c(c3cc(OC(F)(F)F)ccc31)CN(C)CC2)c1ccncc1 [Compound 263, (E)-2-methyl-5-(2-(pyridin-4-yl)prop-1-enyl)-8-(trifluoromethoxy)-2,3,4,5-tetrahydro-1H-pyrido[4,3-b]indole] | 18 | 15 | 89 | 8 | 99 | 64 |  |  |  |  |  |
| Cc1ccc2c(c1)c1c(n2/C=C(\c2ccncc2)C(C)C)CCN(C)C1 [Compound 264, (Z)-2,8-dimethyl-5-(3-methyl-2-(pyridin-4-yl)but-1-enyl)-2,3,4,5-tetrahydro-1H-pyrido[4,3-b]indole] | 94 | 51 | 49 | 24 | 89 | 99 |  |  |  |  |  |
| CC(C)/C(=C/n1c2c(c3cc(Cl)ccc31)CN(C)CC2)c1ccncc1 [Compound 265, (Z)-8-chloro-2-methyl-5-(3-methyl-2-(pyridin-4-yl)but-1-enyl)-2,3,4,5-tetrahydro-1H-pyrido[4,3-b]indole] | 89 | 52 | 73 | 22 | 97 | 96 |  |  |  |  |  |
| CCN1CCc2c(c3ccccc3n2/C=C(\C)c2ccncc2)C1 [Compound 266, (E)-2-ethyl-5-(2-(pyridin-4-yl)prop-1-enyl)-2,3,4,5-tetrahydro-1H-pyrido[4,3-b]indole] | 12 | 18 | 94 | -1 | 81 | 67 |  |  |  |  |  |
| C/C(=C\n1c2c(c3cc(C(C)C)ccc31)CN(C)CC2)c1ccncc1 [Compound 267, (E)-8-isopropyl-2-methyl-5-(2-(pyridin-4-yl)prop-1-enyl)-2,3,4,5-tetrahydro-1H-pyrido[4,3-b]indole] | 54 | 85 | 85 | 6 | 87 | 66 |  |  |  |  |  |
| C/C(=C\n1c2c(c3cc(C(F)(F)F)ccc31)CN(C)CC2)c1ccc(F)cc1 [Compound 268, (E)-5-(2-(4-fluorophenyl)prop-1-enyl)-2-methyl-8-(trifluoromethyl)-2,3,4,5-tetrahydro-1H-pyrido[4,3-b]indole] | 86 | 87 | 98 | 53 | 97 | 98 |  |  |  |  |  |
| CCN1CCc2c(c3cc(C)ccc3n2/C=C(\C)c2ccncc2)C1 [Compound 269, (E)-2-ethyl-8-methyl-5-(2-(pyridin-4-yl)prop-1-enyl)-2,3,4,5-tetrahydro-1H-pyrido[4,3-b]indole] | 55 | 51 | 91 | -2 | 102 | 87 |  |  |  |  |  |
| CCc1ccc2c(c1)c1c(n2/C=C(\C)c2ccncc2)CCN(C)C1 [Compound 270, (E)-8-ethyl-2-methyl-5-(2-(pyridin-4-yl)prop-1-enyl)-2,3,4,5-tetrahydro-1H-pyrido[4,3-b]indole] | 84 | 79 | 88 | 19 | 97 | 92 |  |  |  |  |  |
| C/C(=C\n1c2c(c3cc(C(C)(C)C)ccc31)CN(C)CC2)c1ccncc1 [Compound 271, (E)-8-tert-butyl-2-methyl-5-(2-(pyridin-4-yl)prop-1-enyl)-2,3,4,5-tetrahydro-1H-pyrido[4,3-b]indole] | 19 | 10 | 63 | -16 | 90 | 41 |  |  |  |  |  |
| C/C(=C\n1c2c(c3cc(C)ccc31)CN(C(C)C)CC2)c1ccncc1 [Compound 272, (E)-2-isopropyl-8-methyl-5-(2-(pyridin-4-yl)prop-1-enyl)-2,3,4,5-tetrahydro-1H-pyrido[4,3-b]indole] | 40 | -1 | 85 | 48 | 98 | 62 |  |  |  |  |  |
| C/C(=C\n1c2c(c3cc(Cl)ccc31)CN(C)C(C)C2)c1ccc(C)nc1 (stereo not drawn) [Compound 273, (E)-8-chloro-2,3-dimethyl-5-(2-(6-methylpyridin-3-yl)prop-1-enyl)-2,3,4,5-tetrahydro-1H-pyrido[4,3-b]indole] | 100 | 85 | 12 | 41 | 46 | 94 |  |  |  |  |  |
| C/C(=C\n1c2c(c3cc(Cl)ccc31)CN(C)C(C)C2)c1ccncc1 (stereo not drawn) [Compound 275, (E)-8-chloro-2,3-dimethyl-5-(2-(pyridin-4-yl)prop-1-enyl)-2,3,4,5-tetrahydro-1H-pyrido[4,3-b]indole] | 98 | 72 | 92 | 39 | 101 | 93 |  |  |  |  |  |
| C/C(=C\n1c2c(c3cc(C)ccc31)CN(C)CC2)c1ccc(F)cc1F [Compound 276, (E)-5-(2-(2,4-difluorophenyl)prop-1-enyl)-2,8-dimethyl-2,3,4,5-tetrahydro-1H-pyrido[4,3-b]indole] | 96 | 86 | 82 | 63 | 81 | 99 |  |  |  |  |  |
| C/C(=C\n1c2c(c3cc(Cl)ccc31)CN(C)CC2)c1ccc(F)cc1F [Compound 277, (E)-8-chloro-5-(2-(2,4-difluorophenyl)prop-1-enyl)-2-methyl-2,3,4,5-tetrahydro-1H-pyrido[4,3-b]indole] |  |  |  | 95 |  |  | 98 | 103 | 98 | 98 | 100 |
| C/C(=C\n1c2c(c3cc(C)ccc31)CN(C)CC2)c1ccccn1 [Compound 278, (E)-2,8-dimethyl-5-(2-(pyridin-2-yl)prop-1-enyl)-2,3,4,5-tetrahydro-1H-pyrido[4,3-b]indole] | 91 | 79 | 51 | 24 | 69 | 88 |  |  |  |  |  |
| C/C(=C\n1c2c(c3cc(C)ccc31)CN(C)CC2)c1ccncn1 [Compound 279, (E)-2,8-dimethyl-5-(2-(pyrimidin-4-yl)prop-1-enyl)-2,3,4,5-tetrahydro-1H-pyrido[4,3-b]indole] | 70 | 53 | 69 | 21 | 90 | 75 |  |  |  |  |  |
